The source of these data is US3996231A, “1-Quinolinyl-pyrazolidine derivatives” (Choay S.A., priority 1973, dated 1976).

Where two headings read alike, the source gives them in different places.

Data set [1] relates to Arthritis by Freund adjuvant. Kind of data set: Arthritis by Freund adjuvant. The following applies: 50 mg/kg per day. Type of data set: in vivo, rat. As to the method: The injection of 0.5 ml of Freund adjuvant (product sold by the Difco Company) into the plantar pad of the rear foot of a rat of 90 days, causes a chronic polyarthritis.
This injection causes an inflammation first localised in the injected foot, then generalised. The blocking of the articulations appears between the 10th and the 20th days.
In a series of rats thus treated there are selected, 10 days after the injection of the Freund adjuvant, 50 rats having complete blockage of the articulations.

The subject of data set [2] is mouse. As to the kind of experiment: Acute oral toxicity / LD50 in the mouse. As to conditions: for Mortality: in vivo, po. As to the method: (§1) LD50 were determined in the mouse and the rat. The substance was administered to the animals by the oral route in a single dose. The behaviour of the animals was observed during the six days which followed. The statistical calculations were done by the method of Miller L. C. Tainter M. L. (Proc. Soc. Exp. Biol. Med., 1944 57 261/264/264).

The nature of data set [3]: Acute oral toxicity / LD50 in the mouse. As to conditions: in vivo, po. As to the method:
as §1

Data set [4] can be described thus: Solubility. Type of data set: physicochemical.
In data set [5] the test system is Experimental pleurisy. As to the kind of experiment: Experimental pleurisy in the rat (terebenthine essence). The class given is in vivo, Wistar rats. As to conditions: 6 hours. As to the method: The injection of terebenthine essence (0.1 ml) into the bottom of the diaphragmatic sack of the rat causes in the hours which follow a vascular parietal reaction which leads to the formation of an inflammatory type pleurisy.
The average volume of the pleural exudate (taken up after opening the thoracic cage of the previously sacrificed animals) increases gradually in control animals to reach 6 to 7 ml towards the sixth hour, this volume remaining constant to the forty-eighth hour. The exudate is accompanied by the diapedesis of the formed elements of the blood and by the increase in the mobile cells of the conjunctive tissue. Five days after the injection of the irritant agent, the cellular phase gives place to a tissular reaction which leads to the building of dense granulation tissue and to the production of adhesions between the lungs and the thoracic wall.
The action of an anti-inflammatory substance is manifested by a reduction in the volume of the pleural exudate measured for example 6 hours after the injection of the irritant agent and by a reduction in the intensity of the later tissular reaction.
Experiments in Wistar rats of 200 g divided into batches in the following manner were carried out:
1 control batch of 15 animals
batch of 60 animals (batch 3) also divided into subgroups, each of them comprising 20 animals which have been treated with the doses indicated in Table V
6 batches of 15 animals, respectively treated with anti-inflammatory substances for comparison identified above.
The substances to be tested were administered by mouth 30 minutes before the injection of the irritant substance. The doses of these known anti-inflammatories correspond to their normal experimental doses. The results indicated in the Table V correspond to the reductions expressed as % of the average volumes of pleural exudate taken up 6 hours after the irritant injection and observed in the treated animals relative to the average volumes measured in the controls.

Data set [6] has as its system rat. Kind of data set: in vivo. As to the method: as §1
Data set [7] in a line: in vivo. The following applies: rat, in vivo, po. As to the method:
as §1

The subject of data set [8] is all the animals. Kind of data set: AD50 (active dose 50) and therapeutic index as shown by the above-mentioned tests. The class given is in vivo. As to conditions: for ED50: read-out: AD50 (active dose 50).
Data set [9] concerns transmission of painful stimuli. As to the kind of experiment: Caroll and Lim test. Type of data set: in vivo, rat. As to conditions: 50 mg/kg by mouth. From the text:
This test (Arch. Int. Pharmacodyn., 1960, CXXV, 383-403) enables the study of the effect of analgesics on the transmission of painful stimuli, by means of electrodes placed on the tail of the rat and connected to a "stimulator" constituted by a source adapted to supply an alternating current of 60 Hz frequency at increasing voltages. The three voltages (thresholds S1, S2, S3) at which there are successively obtained:
Threshold S1 : characteristic retraction movement of the tail
Threshold S3 : a cry which continues after interrupting the stimulation.
The analgesic substances administered to a group of 15 rats have the effect of increasing the values of these thresholds. This is what have been observed with the substance according to the invention, administered by mouth at the dose of 50 mg/kg. The average increases, expressed as % with respect to the average corresponding thresholds observed in 15 animals of a control series, are indicated in Table VIII below.

The mark [10] stands for this setting: comparison batch, 25 mg/kg by mouth.
Setting [11] is: comparison batch, 50 mg/kg by mouth.
[12] abbreviates: relative to the values of the invention's substance.

Take `CCCCC1C(=O)NN(c2ccnc3cc(Cl)ccc23)C1=O` (stereo not drawn) [1-(7'-chloro 4'-quinolinyl) 3,5-dioxo 4-n-butyl pyrazolidine]: the entries for the “Animals with at least partial deblocking of the articulations” value in [1] (after 5 days of treatment), in [1] (after 10 days of treatment) and in [1] (after 15 days of treatment) were “at least 25%”, at least 50% and at least 65%, respectively. For the same compound, the Mortality entry in data set [2] (200 mg/kg) is listed as “no death”; in data set [2] (500 mg/kg), “no death”; in data set [6] (in vivo, po, 200 mg/kg), “no death”; in data set [6] (in vivo, po, 500 mg/kg), “no death”; in [6] (oral single dose, 1 g/kg) it was “no death”; in [6] (oral single dose, 2 g/kg) it was “no death”. Further, the LD50 at 144 h in [3] was about 2000 mg/kg; in data set [7], over 4000 mg/kg. In addition, the mortality at 144 h in data set [3] (1000 mg/kg) was determined as 16%; in data set [3] (2000 mg/kg), 50%; in [3] (4000 mg/kg), 100%; in [7] (4000 mg/kg), 5%. Moreover, in [4] (alcohol), the solubility in alcohol entry is listed as “soluble”. Moreover, the “solubility in solutions of potassium or of sodium carbonate” value in data set [4] (solutions of potassium or of sodium carbonate) was “soluble”. Besides, in data set [4] (water), the solubility in water entry is on record as “insoluble”. The “Reduction of average volume of pleural exudate” value (shortened to “Reduction”) in data set [5] (Batch No. 1, 12.5 mg/kg by mouth) was -24%; in [5] (Batch No. 1, 25 mg/kg by mouth) it was -35%; in data set [5] (Batch No. 1, 50 mg/kg by mouth), -45%; in data set [5] (Batch No. 2, 12.5 mg/kg by mouth), -23%; in data set [5] (Batch No. 2, 25 mg/kg by mouth), -38%; in [5] (Batch No. 2, 50 mg/kg by mouth) it was -55%. For the same compound, the “Reduction” value in data set [5] (Batch No. 3, 12.5 mg/kg by mouth) was -18%; in data set [5] (Batch No. 3, 25 mg/kg by mouth), -28%; in data set [5] (Batch No. 3, 50 mg/kg by mouth) it was -45%. In data set [8] (in all the animals, determined under similar conditions), the ED50 is about 50 mg/kg. Besides, in [8] (in vivo), the therapeutic index result is given as “notably higher than that of phenylbutazone”. The “Average increase of threshold S1” value in data set [9] (11/2 hour), in data set [9] (30 minutes), in data set [9] (1 hour) and in data set [9] (2 hours) was 0 each time.

Turning to `Cc1cccc(Nc2ccccc2C(=O)O)c1C` [Ac. Mefenamic, Mefanamic acid, reference compound], the “Reduction” value in data set [5] (setting [10]) is recorded as -30%.

Consider `O=C(O)c1ccccc1Nc1cccc(C(F)(F)F)c1` [Ac. flufenamic, Flufenamic acid, reference compound], for which the “Reduction” value in [5] (setting [10]) is -32%.

For `O=C(O)c1cccnc1Nc1cccc(C(F)(F)F)c1` [Ac. niflumic, Niflumic acid, reference compound], the “Reduction” value in data set [5] (setting [11]) is given as -30%.

Regarding `COc1ccc2c(c1)c(CC(=O)O)c(C)n2C(=O)c1ccc(Cl)cc1` [Indomethacine, reference compound], the “Reduction” value in data set [5] (comparison batch, 5 mg/kg by mouth) is recorded as -33%.

In the case of `CCCCC1C(=O)N(c2ccccc2)N(c2ccccc2)C1=O` [Phenylbutazone, reference compound], the “LD50 (in words)” value in [2] (setting [12]) and in [6] (setting [12]) was “much lower than the above-indicated values” throughout. In data set [5] (comparison batch, 100 mg/kg by mouth), the “Reduction” value is -49%. Also, the ED50 in data set [8] is about 100 mg/kg.

Regarding Clofezone [reference compound], in data set [5] (setting [11]), the “Reduction” value is recorded as -37%.

The term LD50 denotes the dose expected to kill half of the subjects tested. Higher therefore signals lower toxicity. One may read the mortality as the share of the test organisms that died. A high value points to a strong lethal effect.
